Assays:
Stromelysin-1 = Stromelysin-1 (Homo sapiens, UniProt P08254); test: Inhibition of human fibroblast stromelysin, matrix metalloprotease-3
Interstitial collagenase = molecular target: T1, Interstitial collagenase (Homo sapiens, UniProt P03956); test: Inhibition of human fibroblast collagenase, matrix metalloprotease-1
T1 sequence (P03956 whole entry): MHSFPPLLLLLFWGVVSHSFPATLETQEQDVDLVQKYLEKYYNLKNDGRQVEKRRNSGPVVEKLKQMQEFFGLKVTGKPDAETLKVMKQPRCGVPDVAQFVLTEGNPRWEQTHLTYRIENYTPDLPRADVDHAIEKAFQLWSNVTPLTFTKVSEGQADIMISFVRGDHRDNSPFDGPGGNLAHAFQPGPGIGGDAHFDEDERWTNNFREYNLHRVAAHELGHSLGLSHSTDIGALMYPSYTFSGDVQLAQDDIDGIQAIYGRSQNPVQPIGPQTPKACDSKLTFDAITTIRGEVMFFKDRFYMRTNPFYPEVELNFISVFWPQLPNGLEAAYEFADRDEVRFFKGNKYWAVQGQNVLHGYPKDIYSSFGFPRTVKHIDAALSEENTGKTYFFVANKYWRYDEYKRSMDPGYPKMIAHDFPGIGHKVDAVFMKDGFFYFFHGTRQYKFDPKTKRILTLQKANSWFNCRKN

Matrilysin = molecular target: T2, Matrilysin (Homo sapiens, UniProt P09237); test: Inhibition of matrilysin, matrix metalloprotease-7
T2 sequence (P09237 whole entry): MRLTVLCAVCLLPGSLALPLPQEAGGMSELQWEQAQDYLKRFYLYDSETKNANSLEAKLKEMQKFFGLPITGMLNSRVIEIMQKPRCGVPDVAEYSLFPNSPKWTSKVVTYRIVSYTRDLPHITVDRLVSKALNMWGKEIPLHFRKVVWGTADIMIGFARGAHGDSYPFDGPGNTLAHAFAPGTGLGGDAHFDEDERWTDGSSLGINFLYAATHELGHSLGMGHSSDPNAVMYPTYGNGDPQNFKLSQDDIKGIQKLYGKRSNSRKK

Stromelysin-1, sequence (P08254 whole entry): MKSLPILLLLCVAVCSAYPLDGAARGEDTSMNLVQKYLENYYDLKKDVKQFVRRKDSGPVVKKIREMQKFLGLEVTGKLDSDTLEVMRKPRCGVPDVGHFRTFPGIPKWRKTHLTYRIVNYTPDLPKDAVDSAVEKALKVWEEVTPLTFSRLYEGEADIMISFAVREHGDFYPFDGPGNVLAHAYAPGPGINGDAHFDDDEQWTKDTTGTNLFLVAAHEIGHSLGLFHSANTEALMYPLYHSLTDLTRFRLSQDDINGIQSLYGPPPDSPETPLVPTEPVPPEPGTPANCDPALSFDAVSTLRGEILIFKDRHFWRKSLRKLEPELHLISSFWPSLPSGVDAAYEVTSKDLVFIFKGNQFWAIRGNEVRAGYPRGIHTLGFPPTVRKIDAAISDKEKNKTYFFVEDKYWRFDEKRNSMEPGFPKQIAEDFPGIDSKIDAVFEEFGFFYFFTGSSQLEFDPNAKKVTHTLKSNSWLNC

| SMILES | IC50 (Stromelysin-1) [µM] | IC50 (Interstitial collagenase) [µM] | IC50 (Matrilysin) [µM] |
| --- | --- | --- | --- |
| COc1ccc2nc([C@H](CC(C)C)NC(=O)[C@@H](CC(=O)NO)CC(C)C)[nH]c2c1 | 0.03 | 0.006 | 0.01 |
| COC(=O)c1ccc(NC(=O)[C@H](CC(C)C)NC(=O)[C@@H](CC(=O)NO)CC(C)C)cc1 | 0.0008 | 0.0069 | 0.00023 |
| CC(C)C[C@H](CC(=O)NO)C(=O)N[C@@H](CC(C)C)c1nc2cc(C(F)(F)F)ccc2[nH]1 | 0.02 | 0.007 | 0.01 |
| COC(=O)c1[nH]c([C@H](CC(C)C)NC(=O)[C@@H](CC(=O)NO)CC(C)C)nc1-c1ccccc1 | 0.32 | 3.5 | 0.07 |
| CC(C)C[C@H](CC(=O)NO)C(=O)N[C@@H](CC(C)C)c1nc2ccccc2[nH]1 | 0.008 | 0.029 | 0.002 |
| CC(C)C[C@H](CC(=O)NO)C(=O)N[C@@H](CC(C)C)c1ncc[nH]1 | 0.32 | 0.009 | 0.05 |
| CC(C)C[C@H](CC(=O)NO)C(=O)N[C@@H](CC(C)C)c1nc(-c2ccccc2)c[nH]1 | 0.112 | 0.17 | 0.001 |
| COC(=O)c1ccc2nc([C@H](CC(C)C)NC(=O)[C@@H](CC(=O)NO)CC(C)C)[nH]c2c1 | 0.005 | 0.003 | 0.001 |
| CC(C)C[C@H](CC(=O)NO)C(=O)N[C@@H](Cc1c[nH]c2ccccc12)c1nc2ccccc2[nH]1 | 0.029 | 0.022 | 0.01 |
| CC(C)C[C@H](NC(=O)[C@@H](CC(=O)NO)C1CCCCC1)c1nc(-c2ccccc2)c[nH]1 | 5.9 | 0.48 | 0.0031 |
| CC(C)C[C@H](CC(=O)NO)C(=O)N[C@@H](CC(C)C)c1nc2cc(Cl)c(Cl)cc2[nH]1 | 0.068 | 0.04 | 0.033 |
| CC(C)C[C@H](CC(=O)NO)C(=O)N[C@@H](Cc1c[nH]c2ccccc12)c1ncc[nH]1 | 0.28 | 0.018 | 0.018 |
